Assay results: patent US20090181910A1, “METHOD OF PREVENTION AND ALLEVIATION OF TOXICITY BY MODULATION OF IRF3” (priority 2006, published 2009)
Entries after “also recorded” stand apart in the source; their conditions may differ. Where a SMILES comes first, the peptide text is derived from it. The star is where a group is joined. Cbz = O=C(OCc1ccccc1)*

Experiments:
RXRα [1] = test system: RXRα; design: species or system mice; conditions: mouse, in vivo
UGT1A6 [2] = assay type: cell-based, human; conditions: Huh7 cells with RXRα silenced by siRNA; ASA 20 μg/ml 24 hours
UGT1A6 [3] = test system: UGT1A6; design: species or system mice; conditions: mouse
Oatp2 = test system: Oatp2; design: species or system mice; conditions: mouse
Cyp3A11 [4] = conditions: mouse
[5] = mouse, in vivo
[6] = mouse, in vivo; remark: listed apart in the source
RXRα [7] = assay type: cell-based, Murine
[8] = mouse, in vivo; remark: listed apart in the source
[9] = Survival following APAP treatment; assay type: in vivo, mice; conditions: PCN 75 mg/kg i.p. 24 h before APAP 175 mg/kg; FIG. 4C
Description: FIG. 4: Percentage survival following APAP treatment with or without polyI:C. (A) Wildtype (n=8) fasted and were treated with 0.1% NaCl or polyI:C (100 μg) intravenous (i.v.) 24 hours prior to treatment with APAP (600 mg/kg) by intraperitoneal (i.p.) injection. (B) Wildtype and IRF3−/− (n=6-8) fasted and were treated with 0.1% NaCl or polyI:C (100 μg) intravenous (i.v.) 24 hours prior to treatment with APAP (600 mg/kg) by intraperitoneal (i.p.) injection. (C) Wildtype mice (n=6-8) fasted and were treated with 0.1% NaCl or polyI:C (100 μg) intravenous (i.v.) and PCN (75 mg/kg) intraperitoneal (i.p.) 24 hours prior to treatment with APAP (175 mg/kg) by intraperitoneal (i.p.) injection.
Age and sex matched 6-9 week old mice were used for all experiments. C57/B16 mice were obtained from Jackson Laboratory. IRF3^−/− mice were obtained from Dr. T. Taniguchi. For APAP hepatotoxicity analysis, mice fasted for […] and then administered Vehicle (0.1% NaCl) or APAP (175-600 mg/kg) by intraperitoneal injection (i.p.). For serum and histological studies, mice were sacrificed at 6-7 hours post injection and serum and liver samples were retrieved. For survival studies, mice were studied for up to 5 days. For polyI:C studies, mice were also treated with 0.1% NaCl or polyI:C (100 μg) intravenous (i.v.) 12-24 hours prior to APAP treatment. To study the effects of PCN on APAP treatment, mice were treated with PCN (75 mg/kg) or control (1% DMSO, corn oil) by intraperitoneal (i.p.) 12-24 hours prior to APAP treatment. To study the effects of ethanol (EtOH) on APAP treatment, mice were given 20% EtOH in water ad libidum for 5 days prior to APAP therapy. PolyI:C treatment for these experiments occurred at Day 3 and Day 5. Serum alanine aminotransferase (ALT) levels were determined using manufacturer's protocol (TECO Diagnostics). For H&E staining, liver samples were fixed in formalin for 48 hours. H&E stainings were done by UCLA Tissue Procurement Core Laboratory (TPCL).

[10] = addition of PCN
[11] = Serum ALT in APAP hepatotoxicity
[12] = H&E liver histology in APAP hepatotoxicity; conditions: pretreatment with PCN or ethanol, lower levels of APAP (175 mg/kg); FIG. 3B
[13] = in adults; cited from earlier work
Cyp1A2 = assay: Liver RNA Q-PCR, polyI:C/APAP-treated mice: Cyp1A2; conditions: APAP 350 mg/kg i.p., 6 h
Cyp3A11 [14] = assay: Liver RNA Q-PCR, polyI:C/APAP-treated mice: Cyp3A11; conditions: APAP 350 mg/kg i.p., 6 h
RXRα [15] = assay: BMM anti-RXRα Western blot; assay type: cell-based, Murine; conditions: for RXRα protein loss following polyI:C treatment: LG268 10 nM or GW3965 1 μM added to polyI:C 1 μg/ml, 24 hrs, FIG. 8d
CRBPII = assay: RAW 264.7 Q-PCR: CRBPII; assay type: cell-based, murine; conditions: overexpression of Hes1 in RAW 264.7 cells; FIG. 10b
ABCA1 = assay: RAW 264.7 Q-PCR: ABCA1; assay type: cell-based, murine; conditions: overexpression of Hes1 in RAW 264.7 cells; FIG. 10b

## CC(=O)Oc1ccccc1C(=O)O [ASA, acetylsalicylic acid]
RXRα [1]
  RXRα protein in liver: significant loss of RXRα protein
UGT1A6 [2]
  UGT1A6 induction by ASA: impaired
UGT1A6 [3]
  UGT1A6 mRNA in vivo: potently increased
Oatp2
  Oatp2 mRNA in vivo: not other PXR/RXR genes such as Oatp2
Cyp3A11 [4]
  CYP3A11 mRNA in vivo: potently increased
[5]
  hepatotoxicity (liver necrosis or fatty degeneration): caused severe hepatotoxicity as evidenced by liver necrosis or fatty degeneration
  hepatotoxicity from polyI:C plus ASA in knockout mice: did not occur in IRF3^−/− mice, but did occur in IFNAR^−/− mice
  hepatotoxicity, agent alone: did not cause significant hepatotoxicity
[6]
  blood glucose levels: significantly decreased
  serum ALT: increased
  serum ammonia: increased
  total bilirubin levels: increased

## CC(/C=C/C(=O)NO)=C\[C@@H](C)C(=O)c1ccc(N(C)C)cc1 [TSA, trichostatin A]
RXRα [7]
  effect on polyI:C repression of RXRα mRNA: prevented polyI:C repression of RXRα, and allowed polyI:C to induce RXRα

## C[C@H](CCC(=O)O)[C@H]1CC[C@H]2[C@@H]3CC[C@@H]4C[C@H](O)CC[C@]4(C)[C@H]3CC[C@]12C [LCA, Lithocholic acid]
[8]
  serum alanine aminotransferase (ALT) levels: significant elevation of serum alanine aminotransferase (ALT) levels

## CC(=O)[C@H]1[C@H](C#N)C[C@H]2[C@@H]3CC=C4C[C@@H](O)CC[C@]4(C)[C@H]3CC[C@@]21C [PCN, Pregnenolone 16alpha-carbonitrile]
[9]
  sensitivity to APAP (survival): increases sensitivity to lower levels of APAP
RXRα [1]
  RXRα protein expression in liver: further loss of RXRα protein expression; also recorded: potent loss of RXRα protein
UGT1A6 [3]
  UGT1A6 mRNA in vivo: potently increased
Oatp2
  Oatp2 mRNA in vivo: not other PXR/RXR genes such as Oatp2
Cyp3A11 [4]
  CYP3A11 mRNA in vivo: potently increased
[8]
  LCA-induced serum ALT with PCN co-treatment: reduced
[10]
  protection from VSV plus LCA-induced hepatotoxicity: could not be blocked
[11]; PCN 75 mg/kg i.p. 24 h before APAP 175 mg/kg, FIG. 2B
  hepatotoxicity as measured by serum ALT: caused less toxic levels of APAP to result in severe hepatotoxicity
[12]
  cell necrosis (H&E): results in severe necrosis similar to higher doses of APAP

## CC(=O)Nc1ccc(O)cc1 [APAP, Acetaminophen]
[13]
  single acute toxic ingestion: approximately 7 g
Cyp1A2
  induction of Cyp1A2 by APAP: does not
Cyp3A11 [14]
  induction of Cyp3A11 by APAP: does not

## CCO [ethanol, Ethanol]
[11]; 20% EtOH ad libidum 5 days, APAP 175 mg/kg, FIG. 2C
  sensitivity to APAP (serum ALT): results in similar sensitivity to APAP as PCN treatment
[12]
  cell necrosis (H&E): results in severe necrosis similar to higher doses of APAP

## O=C(O)Cc1cccc(OCCCN(Cc2cccc(C(F)(F)F)c2Cl)CC(c2ccccc2)c2ccccc2)c1 [GW3965]
RXRα [15]
  RXRα protein loss following polyI:C treatment: more obvious

## CC(C)C[C@@H](C=O)NC(=O)[C@H](CC(C)C)NC(=O)[C@H](CC(C)C)NC(=O)OCc1ccccc1 [MG132] (Cbz-Leu-Leu-Leu-aldehyde)
RXRα [15]; MG132 10 μM, BMMs, FIG. 8f
  RXRα protein loss after 9cRA and polyI:C co-stimulation: prevented loss of RXRα protein

## CC1=C(/C=C/C(C)=C\C=C\C(C)=C\C(=O)O)C(C)(C)CCC1 [9cRA, 9-cis retinoic acid]
CRBPII
  induction of CRBPII by 9cRA: prevents
ABCA1
  induction of ABCA1 by 9cRA: prevents

## Cc1cc2c(cc1C1(c3ccc(C(=O)O)cn3)CC1)C(C)(C)CCC2(C)C [LG268]
RXRα [15]
  RXRα protein loss following polyI:C treatment: more obvious
